PubChem BioAssay (NCI)
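Each compound was tested at five concentrations against cells in 96-well plates for 48 hours. The concentration for 50% growth inhibition is given as GI50. TGI marks complete inhibition of growth.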

How the values were obtained:
Assay in all cases: NCI-60 cell line screen, 48 h
HL-60(TB) leukemia = test system: HL-60(TB) leukemia
ACHN renal = test system: ACHN renal
LOX IMVI melanoma = test system: LOX IMVI melanoma
SF-268 CNS = test system: SF-268 CNS
MDA-MB-435 = test system: MDA-MB-435
NCI/ADR-RES ovarian = test system: NCI/ADR-RES ovarian
MDA-MB-231 breast = test system: MDA-MB-231 breast
SN12C renal = test system: SN12C renal
OVCAR-4 ovarian = test system: OVCAR-4 ovarian
OVCAR-5 ovarian = test system: OVCAR-5 ovarian
MOLT-4 leukemia = test system: MOLT-4 leukemia
A498 renal = test system: A498 renal
NCI-H23 lung = test system: NCI-H23 lung
IGROV1 ovarian = test system: IGROV1 ovarian
OVCAR-8 ovarian = test system: OVCAR-8 ovarian
HS 578T breast = test system: HS 578T breast
HOP-62 NSCLC = test system: HOP-62 NSCLC
TK-10 renal = test system: TK-10 renal
KM12 colon = test system: KM12 colon
SK-MEL-2 melanoma = test system: SK-MEL-2 melanoma
HCT-15 colon = test system: HCT-15 colon
UO-31 renal = test system: UO-31 renal
SF-295 CNS = test system: SF-295 CNS
CCRF-CEM leukemia = test system: CCRF-CEM leukemia
BT-549 breast = test system: BT-549 breast
SK-MEL-5 melanoma = test system: SK-MEL-5 melanoma
SNB-19 CNS = test system: SNB-19 CNS
HCC-2998 colon = test system: HCC-2998 colon
HT29 colon = test system: HT29 colon
T-47D breast = test system: T-47D breast
HCT-116 colon = test system: HCT-116 colon
MCF7 breast = test system: MCF7 breast
SW-620 colon = test system: SW-620 colon
UACC-62 melanoma = test system: UACC-62 melanoma
DU-145 prostate = test system: DU-145 prostate
NCI-H460 lung = test system: NCI-H460 lung
M14 melanoma = test system: M14 melanoma
PC-3 prostate = test system: PC-3 prostate
MALME-3M melanoma = test system: MALME-3M melanoma
SK-MEL-28 melanoma = test system: SK-MEL-28 melanoma
SK-OV-3 ovarian = test system: SK-OV-3 ovarian
COLO 205 colon = test system: COLO 205 colon
U251 CNS = test system: U251 CNS
RXF 393 renal = test system: RXF 393 renal
SF-539 CNS = test system: SF-539 CNS
OVCAR-3 ovarian = test system: OVCAR-3 ovarian
UACC-257 melanoma = test system: UACC-257 melanoma
RPMI-8226 leukemia = test system: RPMI-8226 leukemia
NCI-H522 lung = test system: NCI-H522 lung
EKVX NSCLC = test system: EKVX NSCLC
NCI-H226 lung = test system: NCI-H226 lung
K-562 leukemia = test system: K-562 leukemia
SNB-75 CNS = test system: SNB-75 CNS
786-0 renal = test system: 786-0 renal
CAKI-1 renal = test system: CAKI-1 renal
SR leukemia = test system: SR leukemia
A549 NSCLC = test system: A549 NSCLC

In the case of `CC(C)(C)c1cn2cccc(C(=O)N3CCN(CC(=O)Nc4ccc(Cl)cc4C(=O)c4ccccc4Cl)CC3)c2n1`, the GI50 (HL-60(TB) leukemia) is reported as > 100 µM, the TGI (HL-60(TB) leukemia) is reported as > 100 µM and the GI50 (ACHN renal) is reported as 6.62 µM. The TGI (ACHN renal) was 61.4 µM, the GI50 (LOX IMVI melanoma) was 11 µM and the TGI (LOX IMVI melanoma) was 23.9 µM. The GI50 (SF-268 CNS) was 13 µM, the TGI (SF-268 CNS) was 43.6 µM and the GI50 (MDA-MB-435) was 6.39 µM. For the same molecule, the TGI (MDA-MB-435) was 21.6 µM, the GI50 (NCI/ADR-RES ovarian) was 6.7 µM and the TGI (NCI/ADR-RES ovarian) was > 100 µM. It also gave a GI50 (MDA-MB-231 breast) of 13.1 µM, a TGI (MDA-MB-231 breast) of 34.5 µM and a GI50 (SN12C renal) of 10.6 µM. For the same molecule, the TGI (SN12C renal) was 35.4 µM, the GI50 (OVCAR-4 ovarian) was 7.9 µM and the TGI (OVCAR-4 ovarian) was > 100 µM. For the same molecule, the GI50 (OVCAR-5 ovarian) was 16.1 µM, the TGI (OVCAR-5 ovarian) was 44.9 µM and the GI50 (MOLT-4 leukemia) was 5.52 µM. The TGI (MOLT-4 leukemia) was > 100 µM, the GI50 (A498 renal) was 3.48 µM and the TGI (A498 renal) was 9.38 µM. For the same molecule, the GI50 (NCI-H23 lung) was 18.8 µM, the TGI (NCI-H23 lung) was > 100 µM and the GI50 (IGROV1 ovarian) was 16.4 µM. The TGI (IGROV1 ovarian) was 38.5 µM, the GI50 (OVCAR-8 ovarian) was 6.84 µM and the TGI (OVCAR-8 ovarian) was 77.4 µM. It also gave a GI50 (HS 578T breast) of 4.72 µM, a TGI (HS 578T breast) of 19.9 µM and a GI50 (HOP-62 NSCLC) of 15.4 µM. The TGI (HOP-62 NSCLC) was 32.3 µM, the GI50 (TK-10 renal) was 16 µM and the TGI (TK-10 renal) was > 100 µM. For the same molecule, the GI50 (KM12 colon) was 5.68 µM, the TGI (KM12 colon) was 22.4 µM and the GI50 (SK-MEL-2 melanoma) was 5 µM. It also gave a TGI (SK-MEL-2 melanoma) of 33.6 µM, a GI50 (HCT-15 colon) of 4.81 µM and a TGI (HCT-15 colon) of 32 µM. For the same molecule, the GI50 (UO-31 renal) was 22.4 µM, the TGI (UO-31 renal) was 74.7 µM and the GI50 (SF-295 CNS) was 4.05 µM. It also gave a TGI (SF-295 CNS) of 7.18 µM, a GI50 (CCRF-CEM leukemia) of 3.39 µM and a TGI (CCRF-CEM leukemia) of 13.7 µM. The GI50 (BT-549 breast) was 3.8 µM, the TGI (BT-549 breast) was 19.7 µM and the GI50 (SK-MEL-5 melanoma) was 3.62 µM. It also gave a TGI (SK-MEL-5 melanoma) of 12.7 µM, a GI50 (SNB-19 CNS) of 15.3 µM and a TGI (SNB-19 CNS) of 54.8 µM. For the same molecule, the GI50 (HCC-2998 colon) was 10.3 µM, the TGI (HCC-2998 colon) was 75.1 µM and the GI50 (HT29 colon) was 3.33 µM. The TGI (HT29 colon) was 12.1 µM, the GI50 (T-47D breast) was 5.33 µM and the TGI (T-47D breast) was > 100 µM. The GI50 (HCT-116 colon) was 10.3 µM, the TGI (HCT-116 colon) was 25.7 µM and the GI50 (MCF7 breast) was 3.94 µM. For the same molecule, the TGI (MCF7 breast) was 20.8 µM, the GI50 (SW-620 colon) was 7.81 µM and the TGI (SW-620 colon) was 29.1 µM. It also gave a GI50 (UACC-62 melanoma) of 10.7 µM, a TGI (UACC-62 melanoma) of 26 µM and a GI50 (DU-145 prostate) of 11.7 µM. For the same molecule, the TGI (DU-145 prostate) was 27.5 µM, the GI50 (NCI-H460 lung) was 5.79 µM and the TGI (NCI-H460 lung) was 23 µM. For the same molecule, the GI50 (M14 melanoma) was 15.4 µM, the TGI (M14 melanoma) was 33.2 µM and the GI50 (PC-3 prostate) was 2.35 µM. For the same molecule, the TGI (PC-3 prostate) was 6.88 µM, the GI50 (MALME-3M melanoma) was 19.9 µM and the TGI (MALME-3M melanoma) was 38.8 µM. For the same molecule, the GI50 (SK-MEL-28 melanoma) was 11 µM, the TGI (SK-MEL-28 melanoma) was 28.8 µM and the GI50 (SK-OV-3 ovarian) was 27.5 µM. The TGI (SK-OV-3 ovarian) was > 100 µM, the GI50 (COLO 205 colon) was 6.49 µM and the TGI (COLO 205 colon) was 43.6 µM. The GI50 (U251 CNS) was 7.68 µM, the TGI (U251 CNS) was 25.5 µM and the GI50 (RXF 393 renal) was 1.71 µM. It also gave a TGI (RXF 393 renal) of 6.34 µM, a GI50 (SF-539 CNS) of 10 µM and a TGI (SF-539 CNS) of 22.3 µM. The GI50 (OVCAR-3 ovarian) was 3.71 µM, the TGI (OVCAR-3 ovarian) was 15.5 µM and the GI50 (UACC-257 melanoma) was 3.51 µM. For the same molecule, the TGI (UACC-257 melanoma) was 23.5 µM, the GI50 (RPMI-8226 leukemia) was 2.67 µM and the TGI (RPMI-8226 leukemia) was 7.26 µM. For the same molecule, the GI50 (NCI-H522 lung) was 12.7 µM, the TGI (NCI-H522 lung) was 52.3 µM and the GI50 (EKVX NSCLC) was 5.79 µM. It also gave a TGI (EKVX NSCLC) of 66.7 µM, a GI50 (NCI-H226 lung) of 11.3 µM and a TGI (NCI-H226 lung) of 37 µM. For the same molecule, the GI50 (K-562 leukemia) was > 100 µM, the TGI (K-562 leukemia) was > 100 µM and the GI50 (SNB-75 CNS) was 12.8 µM. The TGI (SNB-75 CNS) was 90.2 µM, the GI50 (786-0 renal) was 24.4 µM and the TGI (786-0 renal) was 85.2 µM. The GI50 (CAKI-1 renal) was 3.31 µM, the TGI (CAKI-1 renal) was 14.2 µM and the GI50 (SR leukemia) was > 100 µM. The TGI (SR leukemia) was > 100 µM, the GI50 (A549 NSCLC) was 2.64 µM and the TGI (A549 NSCLC) was 23.3 µM.
